Measurements: US9399626B2, “2-thiopyrimidinones” (Pfizer Inc., priority 2011, dated 2016)
Where a name gives a salt, the structure may show the parent alone.

What follows are molecules tested against T1, MPO (purified from human polynuclear leukocytes) (Homo sapiens, UniProt P05164) (assay: MPO Amplex Red Activity Assay). Conditions: Table 1, 2 μM H2O2, pH 7.4.
T1 construct: purified from human polynuclear leukocytes; purchased Calbiochem/EMD Biosciences; host or cells: human polynuclear leukocytes (natural source)
Assay type: biochemical
Experimental: MPO Amplex Red Activity Assay.
MPO peroxidase activity was measured by monitoring the formation of resorufin generated from the oxidation of Amplex Red (10-Acetyl-3,7-dihydroxyphenoxazine) (Invitrogen, Carlsbad, Calif.) by MPO (Gomes, Fernandes et al. 2005). Assay mixtures (100 μL total volume) contained 50 mM NaPi pH 7.4, 150 mM NaCl, 1 mM DTPA (diethylenetriaminepentaacetic acid), 2% DMSO, 2 μM H2O2, 30 μM Amplex Red and the reaction was initiated by the addition of […] (purified from human polynuclear leukocytes and purchased from Calbiochem/EMD Biosciences, Gibbstown, N.J.). All assays were performed in 96-well, half-area, black, nonbinding surface, polystyrene plates (Corning) and the production of resorufin (excitation 530 nm, emission 580 nm) was monitored every 20 sec on a Spectramax M2 Microplate Spectrophotometer (Molecular Devices, Palo Alto, Calif.) equipped with Softmax Pro software (Molecular Devices, Palo Alto, Calif.). Reactions to determine the background reaction rate consisted of all assay components and 4 μL of 500 unit/mL bovine catalase (Sigma) in 50 mM KPi pH 7.0. The background rate was subtracted from each reaction progress curve. All data was analyzed using non-linear regression analysis in Microsoft Excel and Kaleidagraph (Synergy Software).
To determine inhibitor potency (kinact/KI) against MPO, the first 600 sec of the reaction progress curves were fit to equation 1, where Vo is the initial rate in RFU/sec and t is time in seconds, to obtain the first order rate constant for enzyme inactivation (kobs) at each inhibitor concentration.
[formula] Equation 1 is a variation of the standard equation for slow binding inhibition where the steady state velocity (Vs) is set to zero. Each kobs value was corrected for auto-inactivation of the enzyme by subtracting the kobs value for the uninhibited reaction. The corrected kobs values were then plotted versus inhibitor concentration ([I]) and fit to equation 2
[formula] where kinact is the maximal rate of inactivation and KI is the inhibitor concentration that yields half the rate of maximal inactivation (Copeland 2005).
Table 1 and (1A) below provides the myeloperoxidase inhibitory activity for the Examples below in accordance with the above-described assay.

T1 sequence (P05164 279-745 limits assumed): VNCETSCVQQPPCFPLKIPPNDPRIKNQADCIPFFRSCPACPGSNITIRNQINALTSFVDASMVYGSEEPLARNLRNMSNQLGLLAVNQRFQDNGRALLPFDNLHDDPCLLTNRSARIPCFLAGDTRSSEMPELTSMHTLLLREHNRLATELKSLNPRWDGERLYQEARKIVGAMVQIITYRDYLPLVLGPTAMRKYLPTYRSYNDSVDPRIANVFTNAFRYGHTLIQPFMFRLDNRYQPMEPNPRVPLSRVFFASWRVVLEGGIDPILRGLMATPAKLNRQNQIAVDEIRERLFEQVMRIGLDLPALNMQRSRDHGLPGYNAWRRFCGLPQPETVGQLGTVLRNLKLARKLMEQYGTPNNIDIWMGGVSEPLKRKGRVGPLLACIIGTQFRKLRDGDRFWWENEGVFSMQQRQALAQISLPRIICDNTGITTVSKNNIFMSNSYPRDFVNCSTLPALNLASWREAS
T1 sequence (P05164 165-273 limits assumed): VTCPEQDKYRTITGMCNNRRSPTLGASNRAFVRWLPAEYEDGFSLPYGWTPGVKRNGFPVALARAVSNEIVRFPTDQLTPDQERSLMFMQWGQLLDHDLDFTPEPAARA

Row | Compound | MPO kinact/Ki
1 | COc1cc(OC)c(-c2cc(=O)[nH]c(=S)n2CC(N)=O)cc1C [Example 146, 2-[6-(2,4-dimethoxy-5-methylphenyl)-4-oxo-2-thioxo-3,4-dihydropyrimidin-1(2H)-yl]acetamide] | 8950 1/s per M
2 | COCCn1c(-c2cc3ccccc3o2)cc(=O)[nH]c1=S [Example 306, 6-(1-benzofuran-2-yl)-1-(2-methoxyethyl)-2-thioxo-2,3-dihydropyrimidin-4(1H)-one] | 6740 1/s per M
3 | COCCn1c(-c2ccc(O)cc2)cc(=O)[nH]c1=S [Example 286, 6-(4-hydroxyphenyl)-1-(2-methoxyethyl)-2-thioxo-2,3-dihydropyrimdin-4(1H)-one] | 1500 1/s per M
4 | COc1cc(-c2cc(=O)[nH]c(=S)n2CCN)c(OC)cc1C [Example 84, 1-(2-aminoethyl)-6-(2,5-dimethoxy-4-methylphenyl)-2-thioxo-2,3-dihydropyrimidin-4(1H)-one hydrochloride] | 6630 1/s per M
5 | COc1ccc(Cl)cc1-c1cc(=O)[nH]c(=S)n1CCN [Example 63, 1-(2-aminoethyl)-6-(5-chloro-2-methoxyphenyl)-2-thioxo-2,3-dihydropyrimidin-4(1H)-one hydrochloride] | 12200 1/s per M
6 | COc1ccc(-c2cc(=O)[nH]c(=S)n2Cc2ccn(C(N)=S)n2)c(OC)c1 [Example 261, 3-{[6-(2,4-dimethoxyphenyl)-4-oxo-2-thioxo-3,4-dihydropyrimidin-1(2H)-yl]methyl}-1H-pyrazole-1-carbothioamide] | 2280 1/s per M
7 | COCCn1c(-c2cccnc2OC)cc(=O)[nH]c1=S [Example 23, 1-(2-methoxyethyl)-6-(2-methoxypyridin-3-yl)-2-thioxo-2,3-dihydropyrimidin-4(1H)-one] | 991 1/s per M
8 | COc1ccc(-c2cc(=O)[nH]c(=S)n2CC(=O)NCC(N)=O)c(OC)c1 [Example 254, N~2~-{[6-(2,4-dimethoxyphenyl)-4-oxo-2-thioxo-3,4-dihydropyrimidin-1(2H)-yl]acetyl}glycinamide] | 5630 1/s per M
9 | COCCn1c(-c2ccc3c(c2)OCCO3)cc(=O)[nH]c1=S [Example 326, 6-(2,3-dihydro-1,4-benzodioxin-6-yl)-1-(2-methoxyethyl)-2-thioxo-2,3-dihydropyrimidin-4(1H)-one] | 7480 1/s per M
10 | COc1ccc(OC)c(-c2cc(=O)[nH]c(=S)n2CCN)c1 [Example 166, 1-(2-aminoethyl)-6-(2,5-dimethoxyphenyl)-2-thioxo-2,3-dihydropyrimidin-4(1H)-one hydrochloride] | 8920 1/s per M
11 | COc1ncc(C)cc1-c1cc(=O)[nH]c(=S)n1CC(N)=O [Example 44, 2-[6-(2-methoxy-5-methylpyridin-3-yl)-4-oxo-2-thioxo-3,4-dihydropyrimidin-1(2H)-yl]acetamide] | 3440 1/s per M

Results, then the molecule that gave them:

Row | MPO kinact/Ki | Compound
12 | 20500 1/s per M | COc1ccc(-c2cc(=O)[nH]c(=S)n2CCCN=C(N)N)c(OC)c1 [Example 270, 2-{3-[6-(2,4-dimethoxyphenyl)-4-oxo-2-thioxo-3,4-dihydropyrimidin-1(2H)-yl]propyl}guanidine trifluoroacetate]
13 | 10700 1/s per M | COc1cc(OC)cc(-c2cc(=O)[nH]c(=S)n2CCCN)c1 [Example 85, 1-(3-aminopropyl)-6-(3,5-dimethoxyphenyl)-2-thioxo-2,3-dihydropyrimidin-4(1H)-one hydrochloride]
14 | 13700 1/s per M | COc1ccc(F)cc1-c1cc(=O)[nH]c(=S)n1CCO [Example 28, 6-(5-fluoro-2-methoxyphenyl)-1-(2-hydroxyethyl)-2-thioxo-2,3-dihydropyrimidin-4(1H)-one]
15 | 2060 1/s per M | COCCn1c(-c2ccccc2Cl)cc(=O)[nH]c1=S [Example 299, 6-(2-chlorophenyl)-1-(2-methoxyethyl)-2-thioxo-2,3-dihydropyrimidin-4(1H)-one]
16 | 4610 1/s per M | COc1cc(OC)c(-c2cc(=O)[nH]c(=S)n2CC(N)=O)cc1OC [Example 124, 2-[4-oxo-2-thioxo-6-(2,4,5-trimethoxyphenyl)-3,4-dihydropyrimidin-1(2H)-yl]acetamide]
17 | 5640 1/s per M | COc1ccc(-c2cc(=O)[nH]c(=S)n2CCC(=N)N)c(OC)c1 [Example 187, 3-[6-(2,4-dimethoxyphenyl)-4-oxo-2-thioxo-3,4-dihydropyrimidin-1(2H)-yl]propanimidamide trifluoroacetate]
18 | 14400 1/s per M | COCCn1c(-c2cccc3sccc23)cc(=O)[nH]c1=S [Example 74, 6-(1-benzothien-4-yl)-1-(2-methoxyethyl)-2-thioxo-2,3-dihydropyrimidin-4(1H)-one]
19 | 1520 1/s per M | COc1ccc(-c2cc(=O)[nH]c(=S)n2CCCNCCO)c(OC)c1 [Example 245, 6-(2,4-dimethoxyphenyl)-1-{3-[(2-hydroxyethyl)amino]propyl}-2-thioxo-2,3-dihydropyrimidin-4(1H)-one]
20 | 1880 1/s per M | COCCn1c(-c2ccc(OC(C)C)cc2)cc(=O)[nH]c1=S [Example 327, 6-(4-isopropoxyphenyl)-1-(2-methoxyethyl)-2-thioxo-2,3-dihydropyrimidin-4(1H)-one]
21 | 4830 1/s per M | N=C(N)NCCn1c(-c2ccccc2-n2nccn2)cc(=O)[nH]c1=S [Example 130, 1-(2-{4-oxo-2-thioxo-6-[2-(2H-1,2,3-triazol-2-yl)phenyl]-3,4-dihydropyrimidin-1(2H)-yl}ethyl)guanidine hydrochloride]
22 | 4360 1/s per M | COc1ccc(-c2cc(=O)[nH]c(=S)n2Cc2ncn[nH]2)c(OC)c1 [Example 209, 6-(2,4-dimethoxyphenyl)-2-thioxo-1-(1H-1,2,4-triazol-5-ylmethyl)-2,3-dihydropyrimidin-4(1H)-one]
23 | 2010 1/s per M | COCCc1ccccc1-c1cc(=O)[nH]c(=S)n1CCO [Example 271, 1-(2-hydroxyethyl)-6-[2-(2-methoxyethyl)phenyl]-2-thioxo-2,3-dihydropyrimidin-4(1H)-one]
24 | 2950 1/s per M | COc1ccc(-c2cc(=O)[nH]c(=S)n2CCOC(C)C)cc1 [Example 172, 1-(2-isopropoxyethyl)-6-(4-methoxyphenyl)-2-thioxo-2,3-dihydropyrimidin-4(1H)-one]
25 | 619 1/s per M | COCCn1c(-c2ccccn2)cc(=O)[nH]c1=S [Example 10, 1-(2-Methoxyethyl)-6-(pyridin-2-yl)-2-thioxo-2,3-dihydropyrimidin-4(1H)-one]
26 | 11700 1/s per M | COc1ccc(F)cc1-c1cc(=O)[nH]c(=S)n1CCCN [Example 58, 1-(3-aminopropyl)-6-(5-fluoro-2-methoxyphenyl)-2-thioxo-2,3-dihydropyrimidin-4(1H)-one hydrochloride]

Same assay, conditions: Table 1A, 2 μM H2O2, pH 7.4

Row | MPO kinact/Ki | Compound
27 | 9200 1/s per M | COc1ccc(-c2cc(=O)[nH]c(=S)n2CC(=O)N[C@H]2CC[C@@H]2N)c(OC)c1 [Example 439, N-[(1S,2S)-2-aminocyclobutyl]-2-[6-(2,4-dimethoxyphenyl)-4-oxo-2-thioxo-3,4-dihydropyrimidin-1(2H)-yl]acetamide]
28 | 1340 1/s per M | NC(=O)Cn1c(-c2cccc3ncccc23)cc(=O)[nH]c1=S [Example 367, 2-[4-oxo-6-(quinolin-5-yl)-2-thioxo-3,4-dihydropyrimidin-1(2H)-yl]acetamide]
